In brackets after ≈: the same amount, converted by molar mass. Structures can show the parent of a compound that is named as a salt.
Experiments:
[1] = system: colon 26 cells; experiment: Regression of tumor in colon 26 bearing mice in combination with adriamycin; assay type: in vivo, mouse (CDF1); conditions: for reducing tumor weight: in combination with adriamycin
Procedure: 20 mg of colon 26 cells were transplanted subcutaneously to CDF1 mice (6 weeks old, female) on day 0. On day 6 the diameter of the tumor was measured and groups of 5 mice were selected having equal average tumor size. On day 7 and 14, 10 mg/kg of adriamycin was injected i.v. and the tested compounds were administered p.o. at 0, 8, 24, 32 hours after the injection of adriamycin. Adriamycin was dissolved in saline to a concentration of 2 mg/ml and the compounds in Example 61 and 62 were dissolved in saline to a concentration of 50 mg/ml. The diameter of the tumor was measured each week and tumor weight was estimated as follows: [formula] (L:long diameter, S:short diameter, mm)

[2] = system: Vincristine-resistant mouse P388 leukemia cells; experiment: Test of effect on overcoming anti-cancer drug resistance (growth inhibition by vincristine, MTT method); assay type: cell-based
Procedure: Vincristine-resistant mouse P388 leukemia cells were used as an example of resistant cancer cells. RPMI-1640 medium containing 5 μM of 2-mercaptoethanol and 10% fetal calf serum was used for incubation.
The cells were inoculated on a 96-well microplate in 1×10^4 /50 μl/well and 25 μl each of vincristine solution having a specific concentration and an aqeous solution of the test compound (4 μg/ml) was added thereto. After culturing at 37° C. for 2 days, the viable cells were counted by the MTT method and a dose-response curve of vincristine was prepared. Based on the curve, the concentration (IC50) of vincristine producing a 50% inhibition of growth was determined.

[3] = compound dose 250 mg p.o. with adriamycin 10 mg/kg i.v., hydrochloride
[4] = compound dose 500 mg p.o. with adriamycin 10 mg/kg i.v., hydrochloride

| Compound | tumor weight [1, 3] [g] | tumor weight [1, 4] [g] | reducing tumor weight [1] | also measured |
| --- | --- | --- | --- | --- |
| COc1cccc2c1C(=O)c1c(O)c3c(c(O)c1C2=O)C[C@@](O)(C(=O)CO)C[C@@H]3O[C@H]1C[C@H](N)[C@H](O)[C@H](C)O1 [Adriamycin, reference compound] |  |  |  | tumor weight ([1]; adriamycin 10 mg/kg i.v. alone, no test compound (untreated 4.5 g)): 2.7 g |
| CC[C@]1(O)C[C@H]2CN(CCc3c([nH]c4ccccc34)[C@@](C(=O)OC)(c3cc4c(cc3OC)N(C=O)[C@H]3[C@@](O)(C(=O)OC)[C@H](OC(C)=O)[C@]5(CC)C=CCN6CC[C@]43[C@@H]65)C2)C1 [vincristine, reference compound] |  |  |  | IC50 ([2]; Mus musculus, P388, 48 h, read-out: IC50 of vincristine alone): 0.05 to 0.1 µg/mL (≈ 0.0606 to 0.121 µM) |
| COC(=O)C1=C(C)N(CCCc2ccccc2)C(C)=C(C(=O)OCCCN2CCN(CC(C)C)CC2)C1c1ccc(OC)c(OC)c1 (stereo not drawn) [Example 3, 1,4-dihydro-4-(3,4-dimethoxyphenyl)-2,6-dimethyl-1-(3-phenylpropyl)-3,5-pyridinedicarboxylic acid 3-methyl-5-[3-(4-isobutylpiperazino)propyl]ester] |  |  |  | IC50 (concentration of vincristine producing a 50% inhibition of growth in the presence of the compound) ([2]; vincristine IC50, test compound present at 1 μg/ml, 37° C., 2 days, MTT): 0.0015 µg/mL |
| COC(=O)C1=C(C)N(CCCc2ccccc2)C(C)=C(C(=O)OCCCc2cccnc2)C1c1ccc(OC)c(OC)c1 (single isomer, unassigned; (-)) [Example 62, (-)-1,4-dihydro-4-(3,4-dimethoxyphenyl)-2,6-dimethyl-1-(3-phenylpropyl-3,5-pyridinedicarboxylic acid 3-methyl-5-[3-(3-pyridyl)propyl]ester hydrochloride] | 1.8 | 1.1 | effective in reducing tumor weight in combination with adriamycin |  |
| COC(=O)C1=C(C)N(CCCc2ccccc2)C(C)=C(C(=O)OCCCc2cccnc2)C1c1ccc(OC)c(OC)c1 (single isomer, unassigned; (+)) [Example 61, (+)-1,4-dihydro-4-(3,4-dimethoxyphenyl)-2,6-dimethyl-1-(3-phenylpropyl)-3,5-pyridinedicarboxylic acid 3-methyl-5-[3-(3-pyridyl)propyl] ester hydrochloride] | 2.2 | 2 | effective in reducing tumor weight in combination with adriamycin |  |

Source: US5292757A, “1,4-dihydropyridine compounds useful as reverse resistance agents” (Ajinomoto Company, Inc., priority 1991, dated 1994)
